± gives the standard deviation of the averaged measurements.
Legend:
Details in all cases: 72 h
[1] = tested on: HepG2; experiment: drug sensitivity score (DSS) for viability; higher = more toxic; extreme values may be limits of the assay
[2] = tested on: Caco-2; experiment: as above
[3] = tested on: U2OS; experiment: as above
[4] = tested on: Calu-3; experiment: as above
[5] = tested on: Vero E6; experiment: as above
[6] = tested on: HepG2; experiment: cell viability relative to DMSO; higher = less toxic
[7] = tested on: Caco-2; experiment: as above
[8] = tested on: U2OS; experiment: as above
[9] = tested on: Calu-3; experiment: as above
[10] = tested on: Vero E6; experiment: as above
[11] = tested on: HepG2; experiment: relative viability EC50 (midpoint between 100% and the lowest measured viability); higher = less toxic
[12] = tested on: Caco-2; experiment: as above
[13] = tested on: U2OS; experiment: as above
[14] = tested on: Calu-3; experiment: as above
[15] = tested on: Vero E6; experiment: as above

| SMILES | drug sensitivity score [1] | drug sensitivity score [2] | drug sensitivity score [3] | drug sensitivity score [4] | drug sensitivity score [5] | cell viability ([6]; 1 nM) [%] | cell viability ([6]; 10 nM) [%] | cell viability ([6]; 100 nM) [%] | cell viability ([6]; 1000 nM) [%] | cell viability ([6]; 10000 nM) [%] | cell viability ([7]; 1 nM) [%] | cell viability ([7]; 10 nM) [%] | cell viability ([7]; 100 nM) [%] | cell viability ([7]; 1000 nM) [%] | cell viability ([7]; 10000 nM) [%] | cell viability ([8]; 1 nM) [%] | cell viability ([8]; 10 nM) [%] | cell viability ([8]; 100 nM) [%] | cell viability ([8]; 1000 nM) [%] | cell viability ([8]; 10000 nM) [%] | cell viability ([9]; 1 nM) [%] | cell viability ([9]; 10 nM) [%] | cell viability ([9]; 100 nM) [%] | cell viability ([9]; 1000 nM) [%] | cell viability ([9]; 10000 nM) [%] | cell viability ([10]; 1 nM) [%] | cell viability ([10]; 10 nM) [%] | cell viability ([10]; 100 nM) [%] | cell viability ([10]; 1000 nM) [%] | cell viability ([10]; 10000 nM) [%] | relative viability EC50 [11] [µM] | relative viability EC50 [12] [µM] | relative viability EC50 [13] [µM] | relative viability EC50 [14] [µM] | relative viability EC50 [15] [µM] |
| --- | --- | --- | --- | --- | --- | --- | --- | --- | --- | --- | --- | --- | --- | --- | --- | --- | --- | --- | --- | --- | --- | --- | --- | --- | --- | --- | --- | --- | --- | --- | --- | --- | --- | --- | --- |
| Cc1ccc(-c2ccc(C)cn2)nc1 [abametapir] | 0 | 0 | 0 | 0 | 0 | 119 | 110 | 100 | 103 | 98.9 | 95.9 | 86.7 | 79.8 | 87 | 93.3 | 98.8 | 96.3 | 97.8 | 96.6 | 99 | 106 | 92.1 | 95.6 | 92.6 | 96.3 | 103 | 104 | 101 | 93.4 | 105 | > 10 | > 10 | > 10 | > 10 | > 10 |
| CC(=O)O[C@@H]1CC[C@@]2(C)[C@@H](CC[C@]3(C)[C@@H]2C(=O)C=C2[C@@H]4[C@@H](C)[C@H](C)CC[C@]4(C)CC[C@]23C)[C@@]1(C)C(=O)O [acetyl-11-keto-beta-boswellic-acid] | 0 | 0 | 0 | 0 | 0 | 109 ± 7.6 | 94 ± 7.4 | 106.6 ± 0.85 | 103 ± 5.4 | 101 ± 8 | 94 ± 1.4 | 109 ± 2.7 | 87.8 ± 15 | 98.1 ± 18 | 96.5 ± 4.7 | 101 ± 2.5 | 98.5 ± 2.3 | 98.7 ± 3.1 | 102 ± 4.6 | 99.5 ± 1.1 | 93.5 ± 0.71 | 108 ± 3.8 | 102 ± 7.1 | 101 ± 22 | 96.5 ± 3.5 | 104 ± 7.3 | 94.4 ± 5 | 99.7 ± 8 | 102 ± 3.4 | 104 ± 3.3 | > 10 | > 10 | > 10 | > 10 | > 10 |
| CC1(c2ccccc2)OC(C(=O)O)=CC1=O (stereo not given) [acifran] | 0 | 0 | 0 | 0 | 0 | 90.3 | 91.9 | 97.8 | 108 | 101 | 90.8 | 95.3 | 95.8 | 105 | 98.9 | 103 | 97.9 | 103 | 97.4 | 104 | 94.9 | 93.6 | 85.5 | 95.3 | 99.6 | 98.9 | 96.1 | 96.9 | 98.5 | 98 | > 10 | > 10 | > 10 | > 10 | > 10 |
| C[n+]1c2cc(N)ccc2cc2ccc(N)cc21 [acriflavinium] | 14.4 | 8.3 | 4.5 | 4.9 | 5.2 | 84.1 | 85.9 | 88.6 | 33.1 | 1.2 | 97.4 | 91.1 | 91 | 62.3 | 37.4 | 98.7 | 101 | 99.7 | 100 | 18.2 | 108 | 108 | 99.3 | 94.9 | 25.8 | 96.9 | 94.8 | 103 | 82 | 49.3 | 0.516 | 0.594 | 3.2 | 2.62 | 1.27 |
| O=C(CCCCCCCC(=O)NCCO)NCCO [adelmidrol] | 0 | 0 | 0 | 0 | 0 | 112 | 94.9 | 98.6 | 94.8 | 101 | 93.1 | 98.7 | 96.2 | 104 | 98.9 | 96.3 | 103 | 94.5 | 99.5 | 103 | 94.2 | 97.1 | 87.2 | 107 | 104 | 99.2 | 98.7 | 96.4 | 96 | 107 | > 10 | > 10 | > 10 | > 10 | > 10 |
| C=CCN1CCCC1CNC(=O)c1cc2nn[nH]c2cc1OC (stereo not given) [alizapride] | 0 | 0 | 0 | 0 | 0 | 108 | 94.2 | 104 | 88.8 | 103 | 94.7 | 104 | 90.1 | 98 | 107 | 97.6 | 99.9 | 94.5 | 106 | 100 | 89.9 | 91.4 | 86.2 | 101 | 112 | 92.9 | 97.3 | 94.9 | 91.4 | 105 | > 10 | > 10 | > 10 | > 10 | > 10 |
| CCOC(=O)[C@H]1O[C@@H]1C(=O)N[C@@H](CC(C)C)C(=O)NCCC(C)C [aloxistatin] | 0.2 | 0 | 0 | 0 | 0 | 118 | 102 | 96.1 | 90.7 | 88.8 | 97.6 | 98.8 | 90.5 | 102 | 98 | 99.6 | 102 | 94.7 | 102 | 97.6 | 91.7 | 99.3 | 107 | 101 | 99.5 | 106 | 109 | 108 | 102 | 99.2 | > 10 | > 10 | > 10 | > 10 | > 10 |
| Nc1ccn([C@H]2CO[C@@H](CO)S2)c(=O)n1 [apricitabine] | 0 | 0 | 0 | 0 | 0 | 94.9 | 105 | 104 | 99.8 | 103 | 99.9 | 91.7 | 98.9 | 103 | 105 | 98.4 | 94.2 | 96.6 | 102 | 100 | 101 | 101 | 98.5 | 92.5 | 102 | 93.7 | 96.9 | 99.1 | 96.4 | 104 | > 10 | > 10 | > 10 | > 10 | > 10 |
| CC1(C)S[C@@H]2[C@H](NC(=O)[C@H](NC(=O)N3CCNC3=O)c3ccccc3)C(=O)N2[C@H]1C(=O)O [azlocillin] | 0 | 0 | 0 | 0 | 0 | 99.1 | 88.5 | 99.3 | 93.9 | 88 | 105 | 93 | 91.3 | 98.8 | 98.1 | 96.6 | 100 | 93.6 | 95 | 98.6 | 97.1 | 100 | 93 | 98.7 | 105 | 95.7 | 96.8 | 96.9 | 94.2 | 98 | > 10 | > 10 | > 10 | > 10 | > 10 |
| CC1=CC(=C(c2ccc(N)cc2)c2ccc(N)cc2)C=CC1=N [basic-fuchsin] | 7.9 | 7.9 | 7.1 | 6.6 | 6.6 | 102 | 97 | 104 | 83 | 7.8 | 88.8 | 92.4 | 106 | 77.6 | 18.6 | 97.8 | 97.9 | 95.2 | 86.5 | 12.8 | 92.3 | 102 | 103 | 87.1 | 19.5 | 97.2 | 91 | 94.8 | 82.3 | 29.8 | 1.81 | 1.47 | 1.96 | 1.93 | 1.54 |
| O=C(c1ccc(CN2CCOCC2)cc1)N1CCN(C2CC2)CC1 [bavisant] | 0 | 0 | 0 | 0.5 | 0 | 108 | 104 | 90.6 | 107 | 94.4 | 104 | 102 | 97.7 | 89.6 | 98.9 | 102 | 97.6 | 103 | 101 | 99.8 | 86.9 | 95 | 87.1 | 88.9 | 89.2 | 109 | 104 | 104 | 104 | 99.6 | > 10 | > 10 | > 10 | > 10 | > 10 |
| O=C(Nc1ccc(C(=O)O)c(O)c1)c1ccccc1 [benzoylpas] | 0 | 0 | 0 | 0 | 0 | 93.5 | 97 | 97.7 | 98.6 | 107 | 93 | 97.5 | 91.9 | 97.5 | 92 | 100 | 102 | 92.8 | 95.9 | 101 | 94.1 | 106 | 97.9 | 90.3 | 91.1 | 99.8 | 96.8 | 105 | 97.4 | 103 | > 10 | > 10 | > 10 | > 10 | > 10 |
| CC(C)(C)CC(C)(C)c1cc(Cc2cc(C(C)(C)CC(C)(C)C)cc(-n3nc4ccccc4n3)c2O)c(O)c(-n2nc3ccccc3n2)c1 [bisoctrizole] | 0 | 0.1 | 0 | 0 | 0 | 98.6 | 108 | 97.5 | 98.6 | 105 | 98.6 | 99.3 | 97.1 | 98.9 | 87.7 | 96.8 | 99.7 | 95.5 | 99.5 | 94.4 | 88.8 | 99 | 90.8 | 105 | 103 | 103 | 101 | 96.5 | 98.1 | 101 | > 10 | > 10 | > 10 | > 10 | > 10 |
| COC(=O)N/N=C/c1c[n+]([O-])c2ccccc2[n+]1[O-] [carbadox] | 0 | 0 | 0 | 0 | 0 | 110 | 95.4 | 96.1 | 105 | 110 | 90.4 | 81.8 | 92.9 | 92.1 | 88.4 | 99.5 | 97.4 | 99.2 | 91.7 | 98.2 | 93.8 | 84.8 | 95.7 | 105 | 93.2 | 93.7 | 95.8 | 88.9 | 92.6 | 111 | > 10 | > 10 | > 10 | > 10 | > 10 |

Source: the supplement of paper PMC13380429
